Results: patent US9108921B2, “Therapeutic compounds and compositions” (AGIOS PHARMACEUTICALS, INC, priority 2014, dated 2015)

Legend:
[1] = target: T1, PKR WT (Homo sapiens, UniProt P30613); experiment: PKR WT enzymatic AC50 assay; type: biochemical; details: wild type PKR
Outline: (§1)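 Human PKR (WT or mutant, 80-400 ng/well) in 50 mM Tris pH 7.5, 100 mM KCl, 5 mM MgCl2, 1 mM DTT, 0.03% BSA with PEP 0.1-0.5 mM, NADH 180 uM and LDH, preincubated 60 min at room temperature with compound (11-point 3-fold series from 100 μM final, 1% DMSO). ADP 0.22-1.65 mM started reaction; A340 followed.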

[2] = target: PKR R532W (Homo sapiens, UniProt P30613, R532W); experiment: PKR Mutant Assay, AC50 against PKR R532W; type: biochemical; details: mutant PKR R532W enzyme
Sequence of PKR R532W (P30613 whole entry R532W): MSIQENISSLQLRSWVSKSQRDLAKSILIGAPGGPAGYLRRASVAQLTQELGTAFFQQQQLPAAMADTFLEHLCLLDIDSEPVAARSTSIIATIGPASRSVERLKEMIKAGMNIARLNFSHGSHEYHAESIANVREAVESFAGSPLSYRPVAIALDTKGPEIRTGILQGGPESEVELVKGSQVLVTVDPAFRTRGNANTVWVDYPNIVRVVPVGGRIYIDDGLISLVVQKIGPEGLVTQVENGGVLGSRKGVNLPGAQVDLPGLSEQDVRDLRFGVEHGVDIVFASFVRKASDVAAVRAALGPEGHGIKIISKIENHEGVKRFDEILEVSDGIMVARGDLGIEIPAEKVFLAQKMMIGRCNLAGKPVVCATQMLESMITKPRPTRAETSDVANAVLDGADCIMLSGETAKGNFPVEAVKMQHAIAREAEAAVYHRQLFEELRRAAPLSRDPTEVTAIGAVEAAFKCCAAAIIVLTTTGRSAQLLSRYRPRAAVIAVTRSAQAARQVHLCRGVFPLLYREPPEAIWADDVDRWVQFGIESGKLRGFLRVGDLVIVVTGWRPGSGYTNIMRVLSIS
Outline: as §1

[3] = target: PKR R510Q (Homo sapiens, UniProt P30613, R510Q); experiment: PKR Mutant Assay, AC50 against PKR R510Q; type: biochemical; details: mutant PKR R510Q enzyme
Sequence of PKR R510Q (P30613 whole entry R510Q): as the sequence (P30613 whole entry R532W) above, with R510Q, W532R counted along it
Outline: as §1

[4] = target: T1, PKR WT; experiment: PKR WT cell based AC50 assay; details: wild type PKR

T1 sequence (P30613 whole entry): as the sequence (P30613 whole entry R532W) above, with W532R counted along it

Structure (SMILES) | AC50 [1] | AC50 [2] | AC50 [3] | AC50 [4]
N#Cc1cc(NS(=O)(=O)c2cccc3cccnc23)ccc1C(=O)N1CCC(O)(c2ccccc2Cl)CC1 [Compound 209] | < 100 nM | < 100 nM | 101 to 1000 nM | < 100 nM
O=C(c1ccc(NS(=O)(=O)c2cc(F)cc3scnc23)cc1)N1CCC(O)(c2ccccc2Cl)CC1 [Compound 401, N-(4-(4-(2-chlorophenyl)-4-hydroxypiperidine-1-carbonyl)phenyl)-6-fluorobenzo[d]thiazole-4-sulfonamide] | < 100 nM | < 100 nM | 101 to 1000 nM | 101 to 1000 nM
CC(CC1(O)CCN(C(=O)c2ccc(NS(=O)(=O)c3cccc4scnc34)cc2)CC1)C(F)(F)F (stereo not shown) [Compound 391] | < 100 nM | < 100 nM | < 100 nM | < 100 nM
CC(C)CC1(O)CCN(C(=O)c2ccc(NS(=O)(=O)c3cccc4ccc(N)nc34)cc2)CC1 [Compound 402, 2-amino-N-(4-(4-hydroxy-4-isobutylpiperidine-1-carbonyl)phenyl)quinoline-8-sulfonamide] | < 100 nM | < 100 nM | < 100 nM | < 100 nM
Cc1cc(F)ccc1C1(O)CCN(C(=O)c2ccc(NS(=O)(=O)c3cccc4cccnc34)cc2)CC1 [Compound 138, N-(4-(4-(4-fluoro-2-methylphenyl)-4-hydroxypiperidine-1-carbonyl)phenyl)quinoline-8-sulfonamide] | < 100 nM | < 100 nM | < 100 nM | < 100 nM
O=C(c1ccc(NS(=O)(=O)c2cccc3cccnc23)cc1)N1CCC(O)(C2CC2)CC1 [Compound 260, N-(4-(4-cyclopropyl-4-hydroxypiperidine-1-carbonyl)phenyl)quinoline-8-sulfonamide] | 101 to 1000 nM | 101 to 1000 nM | 1010 to 10000 nM | 1010 to 10000 nM
CC(C)CC1(O)CCN(C(=O)c2ccc(NS(=O)(=O)c3ccc(F)c4cccnc34)cc2)CC1 [Compound 203, 5-fluoro-N-(4-(4-hydroxy-4-isobutylpiperidine-1-carbonyl)phenyl)quinoline-8-sulfonamide] | < 100 nM | < 100 nM | 101 to 1000 nM | < 100 nM
O=C(c1ccc(NS(=O)(=O)c2cccc3cccnc23)c(F)c1)N1CCC(O)(Cc2ccccc2)CC1 [Compound 163, N-(4-(4-benzyl-4-hydroxypiperidine-1-carbonyl)-2-fluorophenyl)quinoline-8-sulfonamide] | < 100 nM | < 100 nM | 101 to 1000 nM | < 100 nM
CC(CC1(O)CCN(C(=O)c2ccc(NS(=O)(=O)c3cccc4scnc34)cc2)CC1)C(F)F (stereo not shown) [Compound 405, N-(4-(4-(3,3-difluoro-2-methylpropyl)-4-hydroxypiperidine-1-carbonyl)phenyl)benzo[d]thiazole-4-sulfonamide] | 101 to 1000 nM | 101 to 1000 nM | 101 to 1000 nM | 101 to 1000 nM
Cc1nc(C2(O)CCN(C(=O)c3ccc(NS(=O)(=O)c4cccc5cccnc45)cc3)CC2)ccc1F [Compound 171, N-(4-(4-(5-fluoro-6-methylpyridin-2-yl)-4-hydroxypiperidine-1-carbonyl)phenyl)quinoline-8-sulfonamide] | < 100 nM | < 100 nM | 101 to 1000 nM | 101 to 1000 nM
CS(=O)(=O)c1ccccc1C1(O)CCN(C(=O)c2ccc(NS(=O)(=O)c3cccc4cccnc34)cc2)CC1 [Compound 192, N-[4-[4-hydroxy-4-(2-methylsulfonylphenyl)piperidine-1-carbonyl]phenyl]quinoline-8-sulfonamide] | < 100 nM | < 100 nM | 1010 to 10000 nM | < 100 nM
O=C(c1ccc(NS(=O)(=O)c2cccc3cccnc23)c(F)c1)N1CCC(O)(c2ccccc2Cl)CC1 [Compound 143, N-(4-(4-(2-chlorophenyl)-4-hydroxypiperidine-1-carbonyl)-2-fluorophenyl)quinoline-8-sulfonamide] | < 100 nM | < 100 nM | < 100 nM | < 100 nM
CNc1nc2c(S(=O)(=O)Nc3ccc(C(=O)N4CCC(O)(CC(C)C)CC4)cc3)cc(Cl)cc2s1 [Compound 385, 6-chloro-N-(4-(4-hydroxy-4-isobutylpiperidine-1-carbonyl)phenyl)-2-(methylamino)benzo[d]thiazole-4-sulfonamide] | < 100 nM | < 100 nM | < 100 nM | < 100 nM
CC(CC1(O)CCN(C(=O)c2ccc(NS(=O)(=O)c3cccc4c(O)ncnc34)cc2)CC1)C(F)(F)F (stereo not shown) [Compound 431] | < 100 nM | < 100 nM | < 100 nM | 101 to 1000 nM
O=C(c1ccc(NS(=O)(=O)c2cccc3cccnc23)cc1)N1CCC(O)(c2cccnc2C(F)(F)F)CC1 [Compound 159, N-(4-(4-hydroxy-4-(2-(trifluoromethyl)pyridin-3-yl)piperidine-1-carbonyl)phenyl)quinoline-8-sulfonamide] | < 100 nM | < 100 nM | 101 to 1000 nM | < 100 nM
O=C(c1ccc(NS(=O)(=O)c2cccc3cccnc23)cc1)N1CCC(O)(c2cnsc2)CC1 [Compound 377] | < 100 nM | < 100 nM | 101 to 1000 nM | < 100 nM
CC(C)CC1(O)CCN(C(=O)c2ccc(NS(=O)(=O)c3cccc4nccnc34)cc2OC(F)F)CC1 [Compound 213, N-(3-(difluoromethoxy)-4-(4-hydroxy-4-isobutylpiperidine-1-carbonyl)phenyl)quinoxaline-5-sulfonamide] | < 100 nM | < 100 nM | 101 to 1000 nM | < 100 nM
Nc1nc2c(S(=O)(=O)Nc3ccc(C(=O)N4CCC(O)(/C=C/CC(F)(F)F)CC4)cc3)cccc2s1 [Compound 425] | < 100 nM | 101 to 1000 nM | < 100 nM | < 100 nM
O=C(c1ccc(NS(=O)(=O)c2cccc3cccnc23)cc1)N1CCC(O)(c2cccc(F)c2)CC1 [Compound 142, N-(4-(4-(3-fluorophenyl)-4-hydroxypiperidine-1-carbonyl)phenyl)quinoline-8-sulfonamide] | < 100 nM | < 100 nM | 101 to 1000 nM | < 100 nM
O=C(c1ccc(NS(=O)(=O)c2cccc3cccnc23)cc1F)N1CCC(O)(Cc2ccccc2)CC1 [Compound 115, N-(4-(4-benzyl-4-hydroxypiperidine-1-carbonyl)-3-fluorophenyl)quinoline-8-sulfonamide] | < 100 nM | < 100 nM | < 100 nM | < 100 nM
CC(C)CC1(O)CCN(C(=O)c2ccc(NS(=O)(=O)c3cccc4cccnc34)cc2)CC1 [Compound 140, N-(4-(4-hydroxy-4-isobutylpiperidine-1-carbonyl)phenyl)quinoline-8-sulfonamide] | < 100 nM | < 100 nM | < 100 nM | < 100 nM
O=C(c1ccc(NS(=O)(=O)c2cccc3cccnc23)cc1)N1CCC(O)(Cc2cccnc2F)CC1 [Compound 168, N-(4-(4-((2-fluoropyridin-3-yl)methyl)-4-hydroxypiperidine-1-carbonyl)phenyl)quinoline-8-sulfonamide] | < 100 nM | < 100 nM | 101 to 1000 nM | < 100 nM
